Results as given in US20070026431A1, “Modulation of MAPK-mediated phosphorylation and/or FBXW8-mediated ubiquitinylation of cyclin D1 in modulation of cellular proliferation” (priority 2005, published 2007).
“Also recorded” adds a separate entry of the source.

Assays:
GSK3α/β [1] = assay: Phosphorylation-specific blot for GSK3α/β, SW480 cells; type: cell-based, human; details: 24 hours of treatment
[2] = system: HCT 116 colon cancer cells; assay: Flow-cytometric cell cycle analysis, HCT 116 cells; type: cell-based, human; details: BIO 24 hours
Protocol: Cell cycle analysis was carried out as described previously (Tetsu et al. (1999) Nature 398: 422-6; Tetsu et al. (2003) Cancer Cell 3: 233-45.

[3] = system: cyclin D1 protein (Thr286 phosphorylation); assay: Western blot of cyclin D1 and p-Thr286 cyclin D1 in HA-CD1 SW480 cells treated with kinase inhibitors; type: cell-based, human; details: HA-WT CD1 SW480 cells; 24 hours of treatment
Protocol: Immunoblot analysis was performed. […] Asterisks indicate endogenous cyclin D1 expression. Panel B: Western blot analysis with fractionated nuclear proteins. […] Cell-cycle distribution was shown as bar graphs. Nuclear proteins were fractionated at indicated time points. […] Levels of total and phosphorylated cyclin D1 were determined.
(§1) Immunoblotting Analysis. […] SDS-PAGE was described previously (Tetsu and McCormick, 2003).
To identify the kinase responsible for cyclin D1 Thr286 phosphorylation, small molecule inhibitors of GSK3β, CDK4, and MEK were used to determine whether they were able to alter the phosphorylation and stability of ectopically expressed WT cyclin D1 protein in cultured cells (FIG. 5, Panels C and D). Ectopically expressed WT cyclin D1 protein was used to assess the stability of cyclin D1 protein. The endogenous expression was not assessed because transcription of cyclin D1 is regulated by the Ras/MAPK signaling. Therefore, endogenous expression of cyclin D1 is unable to be detected following inhibition of MAPK activities through the MEK/MAPK inhibitors or serum starvation (Tetsu et al., 2003. Cancer Cell. 3, 233-45).

[4] = system: cyclin D1 Thr286 phosphorylation; assay: Thr286 phosphorylation of transfected ΔD cyclin D1 after BIO, HCT 116 cells; type: cell-based, human; details: 5 μM BIO 24 hours after transfection
Description: (§2) FIG. 9 illustrates that MAPK directly binds to cyclin D1 through the MAPK docking site (D-domain) within cyclin D1 and phosphorylates it specifically at Thr286. Panel A: p42 ERK2-associated GST-cyclin D1 (CD1) in vitro kinase assays (upper panels). Purified ERK2 phosphorylates cyclin D1 in vitro. Immuno-blotting (IB) analyses stained with a GST antibody (lower panels) were provided as a reference to show loading conditions of various forms of GST-CD1 fusion proteins. (A) GST alone (lane 1), GST-human (h) CD1 amino acids (A.A.) from 165 to 295 (165-295, lane 2), GST-human (h) or mouse (m) CD1 A.A. from 255 to 295 (255-295, lane 3 and 4) were used. Panel B: Western blot analysis following transfection of various forms of HA-tagged cyclin D1 expression vectors in both NIH 3T3 mouse fibroblast (left) and HCT 116 colon cancer (right) cells. In lane 5 and 10, Cells were treated with 5 μM of a highly specific GSK3β inhibitor BIO for further 24 hours following transfcetion of the ΔD CD1 mutant.
(§3) FIG. 11 illustrates that ERK/MAPK is identified as the major kinase that is responsible for the stability of cyclin D1 protein. […] Cyclin D1 was immunoprecipitated and then analyzed with SDS-PAGE. […] Levels of metabolically labeled-cyclin D1 were estimated by quantitative scanning using the Quantity One (Bio-Rad) software and blotted on the graph to determine the half-life of cyclin D1. […]

GSK3α/β [5] = assay: Phosphorylation-specific blot for GSK3α/β, HCT 116 cells; type: cell-based, human; details: BIO 24 hours
Protocol: FIG. 11 illustrates that ERK/MAPK is identified as the major kinase that is responsible for the stability of cyclin D1 protein. Panels A-F: Pulse-chase analysis of cyclin D1 protein in HCT 116 cells after exposure to the MEK inhibitor U0126 (A-C) or the GSK3 inhibitor BIO (D-F). Exponentially growing HCT 116 cells were treated with either DMSO or 10 μM of U0126 (A-C) for 30 minutes, or DMSO or 5 μM of BIO (D-F) for 24 hours. Panels A and D: Cells were pulse-labeled with ^35S-methionine for 1 hour. Subsequently these cells were chased with cold methionine for the indicated times, and then lysed respectively. Cyclin D1 was immunoprecipitated and then analyzed with SDS-PAGE. Autoradiography was performed. Levels of metabolically labeled-cyclin D1 were estimated by quantitative scanning using the Quantity One (Bio-Rad) software and blotted on the graph to determine the half-life of cyclin D1. Panels B and E: Western blot analysis. The membrane was blotted with a cyclin D1 Thr286 phosphorylation specific (pThr286), total cyclin D1, a phosphorylation specific ERK, and total ERK antibodies (B), or a pThr286, cyclin D1, a GSKα/β phosphorylation specific, and GSK3β antibodies (E). Panels C and F: Cell cycle distributions were shown. […]
In contrast, no effect on phosphorylation status and stability of cyclin D1 protein through inhibition of GSK3α/β (FIG. 14, Panels D-F) were detected. […]

[6] = system: cyclin D1 Thr286 phosphorylation; assay: Thr286 phosphorylation of transfected ΔD cyclin D1 after BIO, NIH 3T3 cells; type: cell-based, mouse; details: 5 μM BIO 24 hours after transfection
Description: as §2, §3

[7] = system: cyclin D1 protein (Thr286 phosphorylation); assay: Western blot of total cyclin D1 and pThr286 in HCT 116 cells after U0126 or GSK3 inhibitor; type: cell-based, human; details: cycling HCT 116; GSK3α/β inhibitor 24 hours
Protocol: FIG. 11 illustrates that ERK/MAPK is identified as the major kinase that is responsible for the stability of cyclin D1 protein. Panels A-F: Pulse-chase analysis of cyclin D1 protein in HCT 116 cells after exposure to the MEK inhibitor U0126 (A-C) or the GSK3 inhibitor BIO (D-F). Exponentially growing HCT 116 cells were treated with either DMSO or 10 μM of U0126 (A-C) for 30 minutes, or DMSO or 5 μM of BIO (D-F) for 24 hours. Panels A and D: Cells were pulse-labeled with ^35S-methionine for 1 hour. Subsequently these cells were chased with cold methionine for the indicated times, and then lysed respectively. Cyclin D1 was immunoprecipitated and then analyzed with SDS-PAGE. Autoradiography was performed. Levels of metabolically labeled-cyclin D1 were estimated by quantitative scanning using the Quantity One (Bio-Rad) software and blotted on the graph to determine the half-life of cyclin D1. Panels B and E: Western blot analysis. The membrane was blotted with a cyclin D1 Thr286 phosphorylation specific (pThr286), total cyclin D1, a phosphorylation specific ERK, and total ERK antibodies (B), or a pThr286, cyclin D1, a GSKα/β phosphorylation specific, and GSK3β antibodies (E). Panels C and F: Cell cycle distributions were shown. Panel G: Western blot analysis following transfection of various forms of HA-tagged cyclin D1 expression vectors in both NIH 3T3 mouse fibroblast (left) and HCT 116 colon cancer (right) cells. In lane 5 and 10, cells were treated with 5 μM of BIO for further 24 hours following transfection of the ΔD CD1 mutant.
as §1
To determine the contribution of ERK/MAPK to the stability of cyclin D1 in cancer cells, MAPK activity was inhibited with the MEK inhibitor U0126 (Favata et al., 1998. J Bio Chem. 273, 18623-32; Davies et al., 2000. Biochem J. 351, 95-105). Exponentially growing HCT 116 colon cancer cells were treated with U0126 for 30 minutes (FIG. 11, Panels A-C).
In contrast, no effect on phosphorylation status and stability of cyclin D1 protein through inhibition of GSK3α/β ([…], Panels D-F) were detected. […] Cycling HCT 116 colon cancer cells were treated with BIO for 24 hours (FIG. 11, Panels D-F). A phosphorylation specific antibody to GSK3α and β was used to measure their endogenous activities because phosphorylations of GSK3α at Tyr279 and GSK3β at Tyr216 are intramolecular autophosphorylation events in the cells. Thus, phosphorylation status reflects their kinase activities (Cole et al., 2004. Biochem J. 377, 249-55).

Structure (SMILES): O=C1Nc2cc(Br)ccc2/C1=C1/Nc2ccccc2/C1=N\O [BIO]
- phosphorylated forms of GSK3α/β (GSK3α/β [1]): disappeared
- cell cycle profile [2]: without affecting
- total cyclin D1 expression and its phosphorylated protein [3]: no significant difference
- phosphorylation status of cyclin D1 at Thr286 (ΔD mutant) [4]: did not show any significant effect; also recorded: minimal effect
- phosphorylated forms of GSK3α/β (GSK3α/β [5]): disappeared
- phosphorylation status of cyclin D1 at Thr286 (ΔD mutant) [6]: slight change; also recorded: reduction
- expression of total cyclin D1 and its phosphorylated protein [7]: no significant difference
